Data reported in patent US5585358A, “Derivatives of valproic acid amides and 2-valproenoic acid amides, method of making and use thereof as anticonvulsant agents” (Yissum Research Development Corporation of the Hebrew …, priority 1993, dated 1996).
Where two headings read alike, the source gives them in different places. Values belong to the compound of their own block, whether it stands above or below them.

What was measured:
[1] = maximal electroshock (MES) test, rat p.o.; format: in vivo; settings: for ED100: Rattus norvegicus, rats, read-out: minimum dose giving full protection against seizures in the MES test
Source text: (§1) The first model, the subcutaneous pentylenetetrazol (s.c. Met) seizure threshold test, is a standard screening procedure to show efficacy for agents against absence seizures. The second model, the maximal electroshock (MES) test, is used to show efficacy for antiepileptic agents against generalized seizures. In these studies, convulsions were inhibited or prevented in mice after intraperitoneal (i.p.) administration and/or in rats after oral (p.o.) administration of the compounds.
(§2) N-(2-Propylpentanoyl)glycinamide (hereinafter compound 1) was further tested in two additional models. The third model, electrical kindling of rats, has been known to show efficacy of antiepileptic agents against complex partial seizures that evolve into generalized motor seizures. In these tests, rats were electrically stimulated via corneal electrodes twice daily for approximately 5 days and then once daily for an additional 10 days. Once the seizure criteria, as described by R. J. Racine, et al., Electroenceph. […] In addition, compound 1 was also tested in the subcutaneous bicuculline model (s.c. Bic).
and rats by subcutaneous administration of pentylenetetrazol (s.c. Met
test) or by electrical stimulation (MES test). N.E. = not effective.

[2] = maximal electroshock (MES) test, mice i.p.; format: in vivo; settings: for activity in MES model: doses up to 300 mg/kg
Source text: Convulsions were induced in mice

[3] = subcutaneous pentylenetetrazol (s.c. Met) seizure threshold test, mice i.p.; format: in vivo; settings: for activity in s.c. Met model: doses up to 300 mg/kg
Source text: Convulsions were induced in mice

[4] = electrical kindling model, rats p.o.; format: in vivo; settings: po; rat p.o.
Source text: as §2

[5] = subcutaneous bicuculline model (s.c. Bic), mice; format: in vivo
Source text: as §2

[6] = neurotoxicity in rats (positional sense test and gait and stance test); format: in vivo; settings: rat p.o.
Method: (§4) Neurotoxicity of the claimed agents was also assessed in mice (i.p. adminstration) by the rotorod ataxia test and also in some cases in rats (p.o. administration) by the positional sense test and gait and stance test.

[7] = format: in vivo, rat
Method: (§3) The studies test for the level of motivation, association and short and long-term memory. The specific studies were the effect of compound 1 on the performance of rats in the locomotor test and passive and active response tests.
In the locomotor test, motor activity was recorded 8 to 9 days after the beginning of drug treatment. Locomotion scores were recorded in cages (25×26cm) having a grid of infra-red beams at 4 cm intervals. Two categories of movements were recorded: small movements (those originating in stationary activities such as grooming and scratching), and big movements (those resulting in ambulation and recorded as the simultaneous crossing of more than two beams). Since rats are nocturnal animals, recordings were usually made between 18:00 PM-6:00 AM.
Activity scores of drugtreated rats, measured in activity cages on days
8-9 after initiation of daily oral dosing with the given drug. Figures ar
number of crossings ± SEM. Number of rats per group are given in […]

[8] = format: in vivo, rat; remark: listed apart in the source
Method: Tests were performed on day 10 after drug treatment. Latency, in seconds, represents response time to entry into dark compartment. Maximum latency is 300 sec. Longer latencies represent improved performance. Bars represent mean standard error (SEM).
as §3
To measure passive avoidance responses, tests were performed on days 10, 12, 14, 20, and 26 after initiation of drug treatment. The apparatus consisted of a lit chamber that can be separated from a dark chamber by a sliding door. In the experiment, a rat is placed in a lit chamber for 30 sec, the door is then opened and the rat moves into the dark chamber with latency that is recorded. Upon entry into the dark chamber, the door is shut and a 0.3 mA footshock is delivered for 3 sec. Retention of the experience is determined after 48 hours by repeating the test and recording the latency. The maximum latency was arbitrarily assigned the value of 300 sec. Longer latencies are taken as a measure of improved memory.

[9] = format: in vivo, rat; design: key to Latency, Session I / Latency, Session II: latency in seconds for avoiding a potential shock
Method: Test was performed on days 16-17 (session 1) and 22-23 (session 2) after initiation of drug treatment. Better performance is indicated by an increase in avoidance score, a decrease in latency time, and an increase in the number of crossings.
as §3
The conditioned avoidance response (active avoidance test) of rats was determined in a Hugo-Basile automatic conditioning apparatus, which consists of a shuttle box with two separate floor grids. In this apparatus the rats are conditioned to jump from one side of the box to the other side. The conditioning is a 10 sec stimulus consisting of a light and electric buzzer. […] The session is then repeated with the same rats 7 days later. Experiments were carried out on days 16-17 and 22-23 from the start of drug treatment, and each rat received 60 trials with a 30 sec interval between each trial.
The following parameters were recorded: a) the number of potential shocks successfully avoided; b) the latency response in seconds for avoiding a potential shock; and c) the total number of crossings made throughout the trials. In this test, a better performance is indicated by an increase in the avoidance of an electric shock, a decrease in the latency time to jump to the other side of the cage, and an increase in the number of times the rats crossed to the other side of the cage.
Scores in the active avoidance test (conditioned avoidance response) of
rats treated with compound 1 and related drugs. The tests in the first
session were performed on days 16-17 from initiation of drug
administration. Those in session II were performed on days 22-23, that is
7 days following session I. Number of rats in a group are given in […]

[10] = screen for protection against chemically and electrically induced convulsions (at least two models of epilepsy); format: in vivo; settings: mice i.p. and/or rats p.o.; MES, s.c. Met, s.c. Bic, electrical kindling
Source text: as §1, §2

[11] = cognitive impairment tests in rats (locomotor, passive and active response tests); format: in vivo, rat; settings: at minimum dose giving full protection in MES test
Source text: A major neurological side effect observed in patients on treatment with antiepileptic agents is cognitive impairment. […] Results from the models used are taken as indicators of major constituents of human cognition.
as §3

in vivo = settings: mouse, ip
[12] = neurotoxicity in mice (rotorod ataxia test)
Method: as §4

[13] = rat p.o.; literature values; cited from earlier work
[14] = rat p.o.; literature values; N.E. = not effective; cited from earlier work
[15] = mice i.p., literature values, N.E. = not effective, cited from earlier work
[16] = rat p.o.; literature values; cited from earlier work; remark: listed apart in the source
[17] = literature values; cited from earlier work
[18] = rat, in vivo, po; cited from earlier work
[19] = mice i.p.; literature values; cited from earlier work
[20] = background literature; cited from earlier work
[21] = median lethal dose in mice; settings: mouse, in vivo, ip
[22] = rats, daily oral dosing, days 8-9, compound 1 200 mg/kg, Na Valproate 500 mg/kg, ± SEM
[23] = rats, days 16-17, compound 1 200, carbamazepine 15, Na valproate 500 mg/kg
[24] = rats, days 22-23, compound 1 200, carbamazepine 15, Na valproate 500 mg/kg

Compound: CCCC(CCC)C(=O)NCC(N)=O [Compound 1, N-(2-n-Propylpentanoyl)glycinamide]
- ED100 ([1]; po): 200 mg/kg
- ED50 ([1]; po, rat p.o., read-out: ED50, MES model): 73 mg/kg
- Pi (protective index, TD50/ED50), MES model ([1]; rat p.o.): > 13.7
- ED50 in MES model, times lower (more efficacious) than VPA ([1]; rat p.o., vs VPA): seven
- ED50 in MES model relative to phenytoin ([1]; rat p.o., vs phenytoin): approximately twice
- PI (protective index, TD50/ED50), MES model [2]: 2.4
- ED50 ([2]; Mus musculus, ip, read-out: ED50, MES model): 152 mg/kg
- PI (protective index, TD50/ED50), s.c. MET model [3]: 2.9
- ED50 ([3]; Mus musculus, ip, read-out: ED50, s.c. MET model): 127 mg/kg
- ED50 [4]: 162 mg/kg
- protection from seizures, s.c. Bic model [5]: full protection from seizures in mice, at a dose that was approximately that of literature values for the ED50 for VPA
- TD50 ([6]; in vivo, po, read-out: TD50 (median neurological toxic dose)): > 1000 mg/kg
- TD50 (median neurological toxic dose) [6]: > 1000 mg/kg
- Big mov. (activity score), day activity 14.00-20.00 h [7, 22]: 2402 ± 307 number of crossings
- Big mov. (activity score), night activity 20.00-08.00 h [7, 22]: 7217 ± 765 number of crossings
- Total mov. (activity score), day activity 14.00-20.00 h [7, 22]: 7749 ± 1188 number of crossings
- Total mov. (activity score), night activity 20.00-08.00 h [7, 22]: 22568 ± 2209 number of crossings
- motor activity in locomotor test ([7]; rats, vs control): no significant difference in motor activity between the control and compound 1
- passive avoidance performance (retention) ([8]; rats, day 16, compound 1 200 mg/kg, VPA 500 mg/kg, daily oral): retained their acquired knowledge to avoid the electric shock as well as the control group
- active avoidance performance ([9]; rats, compared with VPA group, compound 1 200 mg/kg, VPA 500 mg/kg, daily oral): significantly better performance than the VPA treated group
- Avoidance, Session I [9, 23]: 14 ± 7
- Crossings, Session I [9, 23]: 38 ± 13
- Latency, Session I [9, 23]: 21 ± 3 s
- Avoidance, Session II [9, 24]: 12 ± 7
- Crossings, Session II [9, 24]: 35 ± 9
- Latency, Session II [9, 24]: 22 ± 3 s
- anticonvulsant activity [10]: showed anticonvulsant activity in rodents in all of the above mentioned tests
- cognitive impairment compared with VPA [11]: less cognitive impairment than VPA
- LD50 (in vivo): > 4000 mg/kg
- TD50 compared with VPA ([12]; mice i.p., vs VPA): significantly higher for compound 1 (less neurotoxic)
- TD50 ([12]; mouse, in vivo, ip): 369 mg/kg

Compound: CCCC(CCC)C(=O)NCC(=O)O [valproylglycine]
- activity in MES model [2]: neither valproylglycine nor milacemide was active
- activity in s.c. Met model [3]: neither valproylglycine nor milacemide was active

- Avoidance, Session I [9, 23]: 7 ± 4
- Crossings, Session I [9, 23]: 18 ± 10
- Latency, Session I [9, 23]: 27 ± 2 s
- Avoidance, Session II [9, 24]: 2 ± 2
- Crossings, Session II [9, 24]: 11 ± 8
- Latency, Session II [9, 24]: 29 ± 1 s
Compound: NC(=O)N1c2ccccc2C=Cc2ccccc21 [Carbamizepine]
- ED50, MES model [13]: 8.5 mg/kg
- ED50, s.c. MET model [14]: N.E.
- ED50, s.c. MET model [15]: N.E.
- ED50, electrical kindling model [16]: 28.9 mg/kg

Compound: O=C1NC(=O)C(c2ccccc2)(c2ccccc2)N1 [Phenytoin]
- ED50, MES model [13]: 29.8 mg/kg
- ED50, s.c. MET model [14]: N.E.
- ED50, s.c. MET model [15]: N.E.
- efficacy in s.c. Bic model [17]: not effective
- TD50 (median neurological toxic dose) [18]: > 3000 mg/kg

Compound: CCCC(CCC)C(=O)O [VPA, 2-propylpentanoic acid]
- ED100 ([1]; po): 500 mg/kg
- passive avoidance performance (retention) ([8]; rat, in vivo): performed much worse
- active avoidance performance compared with control group ([9]; rat, in vivo): worse performance
- ED50, MES model [13]: 490 mg/kg
- ED50, MES model [19]: 272 mg/kg
- ED50, s.c. MET model [14]: 180 mg/kg
- ED50, s.c. MET model [15]: 146 mg/kg
- ED50, s.c. MET model ([15]; listed as Valproic acid): 149 mg/kg
- ED50, electrical kindling model [16]: 117 mg/kg
- adverse effects [20]: considerable adverse effects including hepatotoxicity and teratogenicity
- LD50 [21]: 658 mg/kg

Compound: CCCC(CCC)C(=O)O [Na Valproate]
- Big mov. (activity score), day activity 14.00-20.00 h ([7]; rat, in vivo): 2784 ± 352 number of crossings
- Big mov. (activity score), night activity 20.00-08.00 h ([7]; rat, in vivo): 5832 ± 854 number of crossings
- Total mov. (activity score), day activity 14.00-20.00 h ([7]; rat, in vivo): 8963 ± 1554 number of crossings
- Total mov. (activity score), night activity 20.00-08.00 h ([7]; rat, in vivo): 18876 ± 2039 number of crossings
- Avoidance, Session I ([9]; rat, in vivo): 2 ± 3
- Avoidance, Session II ([9]; rat, in vivo): 6 ± 5
- Crossings, Session I ([9]; rat, in vivo): 13 ± 2
- Crossings, Session II ([9]; rat, in vivo): 16 ± 9
- Latency, Session I ([9]; rat, in vivo): 28 ± 0.4
- Latency, Session II ([9]; rat, in vivo): 27 ± 2

Compound: CCCCCNCC(N)=O [milacemide]
- activity in MES model [2]: neither valproylglycine nor milacemide was active
- activity in s.c. Met model [3]: neither valproylglycine nor milacemide was active
